Reference: the supplement of paper PMC4862054
“And” between values parts separate entries of the source, which are not always exact repeats. Equal values may be shown once.

How the values were obtained:
Conditions in all cases: incubation time: 72 h
DU-4475 [1] = experiment: normalised viability (% of control), CellTiter-Blue; higher = more viable cells (100 = DMSO, 0 = benzethonium chloride kill control)
Protocol: (§1)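 DSRT, CellTiter-Blue viability, 72 h incubation. Signal is normalised to DMSO and benzethonium chloride controls. Value is the normalised response at dose 1.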

HCC1143 [2] = experiment: as above
Protocol: as §1

HDQ-P1 [3] = experiment: as above
Protocol: as §1

SK-BR-3 [4] = experiment: as above
Protocol: as §1

Hs578T [5] = experiment: as above
Protocol: as §1

MDA-MB-231 [6] = experiment: as above
Protocol: as §1

CAL-120 [7] = experiment: as above
Protocol: as §1

CAL-85-1 [8] = experiment: as above
Protocol: as §1

MDA-MB-436 [9] = experiment: as above
Protocol: as §1

HCC1937 [10] = experiment: as above
Protocol: as §1

HCC1599 [11] = experiment: as above
Protocol: as §1

BT-549 [12] = experiment: as above
Protocol: as §1

CAL-148 [13] = experiment: as above
Protocol: as §1

CAL-51 [14] = experiment: as above
Protocol: as §1

BT-474 [15] = experiment: as above
Protocol: as §1

MDA-MB-453 [16] = experiment: as above
Protocol: as §1

MFM-223 [17] = experiment: as above
Protocol: as §1

MDA-MB-468 [18] = experiment: as above
Protocol: as §1

DU-4475 [19] = experiment: normalised response (% of control), CellTiter-Glo; higher = more viable cells (100 = DMSO, 0 = benzethonium chloride kill control)
In short: (§2)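 After 72 h with compound in 384-well plates, breast cancer cell lines seeded as 20 µl suspension were read for CellTox Green fluorescence at 485/520 nm. CellTiter-Glo luminescence was then read after 10 min at room temperature. Compound was present at 5 concentrations in 10-fold steps over a 10,000-fold range set per compound, and plates were normalised to 0.1 % DMSO (100) and a positive kill control (0). Values are normalised signals, each at a single concentration.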

HCC1143 [20] = experiment: as above
In short: as §2

HDQ-P1 [21] = experiment: as above
In short: as §2

SK-BR-3 [22] = experiment: as above
In short: as §2

Hs578T [23] = experiment: as above
In short: as §2

MDA-MB-231 [24] = experiment: as above
In short: as §2

CAL-120 [25] = experiment: as above
In short: as §2

CAL-85-1 [26] = experiment: as above
In short: as §2

MDA-MB-436 [27] = experiment: as above
In short: as §2

HCC1937 [28] = experiment: as above
In short: as §2

HCC1599 [29] = experiment: as above
In short: as §2

BT-549 [30] = experiment: as above
In short: as §2

CAL-148 [31] = experiment: as above
In short: as §2

CAL-51 [32] = experiment: as above
In short: as §2

MCF-10A = experiment: as above
In short: as §2

BT-474 [33] = experiment: as above
In short: as §2

MDA-MB-453 [34] = experiment: as above
In short: as §2

MFM-223 [35] = experiment: as above
In short: as §2

MDA-MB-468 [36] = experiment: as above
In short: as §2

In the case of Nc1ncn([C@@H]2O[C@H](CO)[C@@H](O)[C@H]2O)c(=O)n1 [Azacitidine] (1 nM), the normalised viability (DU-4475 [1]) is reported as 109%, the normalised viability (HCC1143 [2]) is reported as 89.3% and the normalised viability (HDQ-P1 [3]) is reported as 99.9%. The normalised viability (SK-BR-3 [4]) was 94.6%, the normalised viability (Hs578T [5]) was 105% and the normalised viability (MDA-MB-231 [6]) was 89.3%. For the same molecule, the normalised viability (CAL-120 [7]) was 84.4%, the normalised viability (CAL-85-1 [8]) was 94.9% and the normalised viability (MDA-MB-436 [9]) was 108%. The normalised viability (HCC1937 [10]) was 85%, the normalised viability (HCC1599 [11]) was 89.1% and the normalised viability (BT-549 [12]) was 93.7%. It also gave a normalised viability (CAL-148 [13]) of 92%, a normalised viability (CAL-51 [14]) of 102% and a normalised viability (BT-474 [15]) of 89.5%. The normalised viability (MDA-MB-453 [16]) was 102%, the normalised viability (MFM-223 [17]) was 95.5% and the normalised viability (MDA-MB-468 [18]) was 95.5%. For the same molecule, the normalised response (DU-4475 [19]) was 102%, the normalised response (HCC1143 [20]) was 95.4% and the normalised response (HDQ-P1 [21]) was 98.7%. For the same molecule, the normalised response (SK-BR-3 [22]) was 105%, the normalised response (Hs578T [23]) was 98.7% and the normalised response (MDA-MB-231 [24]) was 101%. For the same molecule, the normalised response (CAL-120 [25]) was 95.9%, the normalised response (CAL-85-1 [26]) was 103% and the normalised response (MDA-MB-436 [27]) was 102%. For the same molecule, the normalised response (HCC1937 [28]) was 94%, the normalised response (HCC1599 [29]) was 96.8% and the normalised response (BT-549 [30]) was 96.5%. It also gave a normalised response (CAL-148 [31]) of 96.1%, a normalised response (CAL-51 [32]) of 129% and a normalised response (MCF-10A) of 101%. For the same molecule, the normalised response (BT-474 [33]) was 97.1%, the normalised response (MDA-MB-453 [34]) was 112% and the normalised response (MFM-223 [35]) was 104%. The normalised response (MDA-MB-468 [36]) was 100%.

For CC(=O)O[C@@]12CO[C@@H]1C[C@H](O)[C@@]1(C)C(=O)[C@H](O)C3=C(C)[C@@H](OC(=O)[C@H](O)[C@@H](NC(=O)OC(C)(C)C)c4ccccc4)C[C@@](O)([C@@H](OC(=O)c4ccccc4)[C@H]21)C3(C)C [Docetaxel] (0.1 nM), the normalised viability (DU-4475 [1]) was 109% and 110%, the normalised viability (HCC1143 [2]) was 107% and 111% and the normalised viability (SK-BR-3 [4]) was 103% and 105%. For the same molecule, the normalised viability (Hs578T [5]) was 99.7% and 96.5%, the normalised viability (MDA-MB-231 [6]) was 110% and 94.6% and the normalised viability (CAL-120 [7]) was 96.5% and 94.7%. The normalised viability (CAL-85-1 [8]) was 101% and 106%, the normalised viability (MDA-MB-436 [9]) was 91.9% and 106% and the normalised viability (HCC1937 [10]) was 81.5% and 83.6%. The normalised viability (HCC1599 [11]) was 119% and 123%, the normalised viability (BT-549 [12]) was 92.9% and 96.3% and the normalised viability (CAL-148 [13]) was 107% and 110%. For the same molecule, the normalised viability (CAL-51 [14]) was 104% and 92.1%, the normalised viability (BT-474 [15]) was 104% and 90.1% and the normalised viability (MDA-MB-453 [16]) was 118% and 98.6%. The normalised viability (MFM-223 [17]) was 100% and 102%, the normalised viability (MDA-MB-468 [18]) was 96.8% and 100% and the normalised response (DU-4475 [19]) was 96.7%. For the same molecule, the normalised response (HCC1143 [20]) was 96.3%, the normalised response (HDQ-P1 [21]) was 96.2% and the normalised response (SK-BR-3 [22]) was 99.3%. The normalised response (Hs578T [23]) was 93.2%, the normalised response (MDA-MB-231 [24]) was 102% and the normalised response (CAL-120 [25]) was 104%. For the same molecule, the normalised response (CAL-85-1 [26]) was 102%, the normalised response (MDA-MB-436 [27]) was 105% and the normalised response (HCC1937 [28]) was 94.5%. For the same molecule, the normalised response (HCC1599 [29]) was 101%, the normalised response (BT-549 [30]) was 104% and the normalised response (CAL-148 [31]) was 90.8%. It also gave a normalised response (CAL-51 [32]) of 94.5%, a normalised response (MCF-10A) of 98% and a normalised response (BT-474 [33]) of 98.8%. For the same molecule, the normalised response (MDA-MB-453 [34]) was 99.7%, the normalised response (MFM-223 [35]) was 96.9% and the normalised response (MDA-MB-468 [36]) was 106%.
